What was measured:
Type in all cases: cell-based, human
[1] = test system: T cell proliferation in MLR (PBMC); assay: one-way primary mixed lymphocyte reaction (MLR), PBMC + mitomycin-treated allogeneic PBMC, [3H]TdR uptake
Protocol: Human blood samples were collected in heparinized vacutainers. To facilitate removal of red blood cells (RBC), 2 ml of 6% dextran in phosphate buffered saline (PBS) (JRH Biosciences, Lenexa, Kans.) was added to each vacutainer, mixed and allowed to stand at room temperature for 30-45 min. The top buffy coat layer was carefully removed and cells centrifuged (300×g, 10 min., 4° C.). The cells were washed 3 times in 15 ml PBS. The peripheral blood mononuclear cells (PBMC) were isolated using a FICOLL-PAQUE (Pharmacia, Piscataway, N.J.) gradient. Ten ml of cells were layered on top of 4 ml FICOLL-PAQUE, centrifuged (1400×g, 20 min., room temperature) and the cells sedimenting at the interface were collected. These PBMC were washed 3 times in PBS, enumerated and resuspended in appropriate media for use in MLR experiments. […] Cell purity determined by staining with CD14 monoclonal antibodies and flow microfluorometric (FMF) analysis was 92% CD14^+. Viability determined by trypan blue exclusion was >95%.
The stimulator PBMAC were treated with 50 μl mitomycin C (Sigma Chemical Co., St. Louis, Mo.) for 20 minutes at 37° C. […] The cells were harvested onto a filter using a 96-well cell harvestor (Skatron, Inc., Sterling, Va.) and counted on a beta counter (Pharmacia LKB Nuclear Inc., Gaithersburg, Md.). […]

[2] = test system: PBMC + B; assay: MLR with purified normal B cells (CD20+) as stimulators, [3H]TdR uptake; conditions: IL-10 200 U/ml; medium 3939 ± 100
Protocol: (§1) The stimulator PBMAC were treated with 50 μl mitomycin C (Sigma Chemical Co., St. Louis, Mo.) for 20 minutes at 37° C. The responder PBMC and the stimulator cells were added to a 96-well microtiter plate (Becton Dickinson, Lincoln Park, N.J.) at 1×10^5 cells per well of each, along with cytokines or antibodies in a total volume of 200 μl in triplets. The cultures were incubated at 37° C. with 5% CO2 in air for 6 days. The cultures were then pulsed with 1 μCi [^3 H]TdR (15.6CI/mmol, NEN, Boston, Mass.) per well for 16 hours. The cells were harvested onto a filter using a 96-well cell harvestor (Skatron, Inc., Sterling, Va.) and counted on a beta counter (Pharmacia LKB Nuclear Inc., Gaithersburg, Md.).
(§2) The supernatant from the MLR was removed and the non-adherent PBMC harvested. The adherent cells were harvested by incubation with 5 mM EDTA at 4° C. for 20 minutes and gently scraped. Cells were combined, centrifuged at 300×g for 10 minutes and washed 3 times in ice-cold PBS. The viable cells were enumerated by Trypan Blue exclusion using a Neubaeur counting chamber, resuspended to 1×10^7 cell/ml in PBS and 100 μl of human IgG (1 mg/ml) was added to each well and incubated on ice. […] Mean channel fluorescence and percent positives for specific markers were determined using LYSIS II software (BDIS). […]

[3] = test system: PBMC + JY; assay: MLR with JY B cell line as stimulator, [3H]TdR uptake
Protocol: as §1
(§3) To address this question further, the ability of IL-10 to suppress the proliferation in MLR when allogeneic PBMC, purified B cells, monocytes or B cell lines were used as stimulators was studied.

[4] = test system: PBMC + Daudi; assay: MLR with Daudi B cell line as stimulator, [3H]TdR uptake; conditions: IL-10 200 U/ml; medium 37357 ± 4497
Protocol: as §1, §3

[5] = test system: PBMC + monocytes; assay: MLR with purified monocytes (CD14+) as stimulators; conditions: monocytes (98% CD14+) as stimulators, PBMC as responder
Protocol: as §1, §2

[6] = test system: IFN-γ; assay: IFN-γ in supernatant of JY-induced MLR, ELISA; conditions: 60 hours; IL-10 100 U/ml, CSA 40 ng/ml; PBMC JY alone 5715
Protocol: (§4) ELISA kits for cytokine production determination were purchased from R&D systems, Minneapolis, Minn.
(§5) To investigate the mechanism by which B cell line-induced MLR resists suppression by IL-10, the effect of IL-10 on cytokine synthesis in this MLR was examined. The presence of IL-2, IFN-γ and TNF-α in supernatants of MLR set up with and without IL-10 ([…]) for 60 hours was determined using ELISA kits.
(§6) ^a The MLR cultures were set up as described above using PBMC (1
(§7) × 10^6 /ml) as responder and mitomycin Ctreated JY cells (5
(§8) × 10^5 cell/) or allogeneic PBMC (5 × 10^5) as
(§9) stimulators in a 24well plate for 60 hours. IL10 was used at 100 U/ml and […]

[7] = test system: IL-2; assay: IL-2 in supernatant of JY-induced MLR, ELISA; conditions: 60 hours; IL-10 100 U/ml, CSA 40 ng/ml; PBMC JY alone 3006
Protocol: as §4, §5, §6, §7, §8, §9

[8] = test system: TNF-α; assay: TNF-α in supernatant of JY-induced MLR, ELISA; conditions: 60 hours; IL-10 100 U/ml, CSA 40 ng/ml; PBMC JY alone 154
Protocol: as §4, §5, §6, §7, §8, §9

[9] = test system: IFN-γ; assay: IFN-γ in supernatant of PBMC + PBMC MLR, ELISA; conditions: 60 hours; IL-10 100 U/ml; detection limit 25 pg/ml
Protocol: as §4, §5, §6, §7, §8, §9

[10] = test system: IL-2; assay: IL-2 in supernatant of PBMC + PBMC MLR, ELISA; conditions: 60 hours; IL-10 100 U/ml; detection limit 50 pg/ml
Protocol: as §4, §5, §6, §7, §8, §9

[11] = test system: TNF-α; assay: TNF-α in supernatant of PBMC + PBMC MLR, ELISA; conditions: 60 hours; IL-10 100 U/ml; detection limit 25 pg/ml
Protocol: as §4, §5, §6, §7, §8, §9

[12] = test system: direct allostimulation of T cells; assay: direct allostimulation: one way primary MLR, responder PBMCs depleted of APC; conditions: responder PBMCs depleted of APC's; similar with CD4+ or CD8+ responders
Protocol: (§10) Purified PBMC from human blood were collected in heparinated tubes by FICOLL gradient. The blood was diluted 1:1 with PBS. 30 ml of the diluted blood was laid on top of 20 ml Ficoll in a 50 ml conical tube and spun at 2,000 rpm for 30 minutes. The interface cells were collected and washed 3 times with medium (10% FCS/RPMI).
(§11) The plastic adherent antigen presenting cells (APC) were removed by resuspended PBMC in 1%. human serum (Type AB) at 1×10^6 cells/ml, and incubated at 37° C. for 30 min. The cells which floated were collected and placed in media (10% FCS/RPMI).
(§12) Nylon wool adherent APC were removed as follows:
(§13) A 10 ml syringe was packed with 1.5 g of nylon wool (Polysciences, Inc., Cat. #18369) and autoclaved. A 3-way stopcock and a 22-gauge needle were attached to the syringe, and the column was washed with 50 ml of prewarmed medium. A cell suspension of 5×10^7 cells/ml of […] was prepared in prewarmed medium. Just before adding the cell suspension, the wool was rinsed with 5 ml of prewarmed medium, the column was left to run dry, and the stopcock was closed. Cells (5-10×10^7) were added. The cells were allowed to penetrate the column, and the stopcock was closed. An additional 0.5 ml of medium was added and the column maintained at 37° C. for 45 minutes. […]

[13] = test system: indirect allostimulation of T cells; assay: indirect allostimulation: MLR, APC depleted from the stimulator population; conditions: APC's depleted from the stimulator population
Protocol: as §10, §11, §12, §13

Substance: IL-10: human interleukin 10, a cytokine produced by T lymphocytes
- IC50 [1]: 8 pM
- CPM (mean ± SD), 3H-TdR uptake ([1]; Human IL-10 100 U/ml, 19B1 and rat IgG at 2.5 U g/ml, untreated MLR 5127 ± 935): 643 ± 197 CPM
- CPM (M ± SD), 3H-TdR uptake [2]: 182 ± 47 CPM
- CPM (M ± SD), 3H-TdR uptake ([3]; IL-10 200 U/ml, medium 26222 ± 6293): 25182 ± 7302 CPM
- suppression of JY-induced MLR ([3]; higher doses of IL-10 up to 1000 U/ml): did not suppress
- CPM (M ± SD), 3H-TdR uptake [4]: 45763 ± 3089 CPM
- suppression of MLR-induced proliferation [5]: strongly suppresses
- Cytokine concentration IFN-γ [6]: 2960 pg/mL
- Cytokine concentration IL-2 [7]: 1294 pg/mL
- Cytokine concentration TNF-α [8]: 209 pg/mL
- Cytokine concentration IFN-γ [9]: < 25 pg/mL
- Cytokine concentration IL-2 [10]: < 50 pg/mL
- Cytokine concentration TNF-α [11]: < 25 pg/mL
- suppression of direct allostimulation, compared with CSA [12]: more suppression than CSA
- inhibition of indirect allostimulation, compared with CSA [13]: stronger inhibitor to the indirect allostimulation than CSA

Source: patent publication US6022536A, “Combined use of interleukin 10 and cyclosporin for immunosuppression therapy” (Schering Corporation, priority 1996, dated 2000)
